This passage reports IC50 results from patent US8748421B2, “Triazine compounds as P13 kinase and MTOR inhibitors” (Wyeth LLC, priority 2009, dated 2014).

The structures appear in SMILES notation.

In assay [1] the test system is human prostate LNCap tumor cell line. Description: In vitro cell culture growth assay (MTS), LNCap. Conditions: 72 h, read-out: IC50 LNCap.
The subject of assay [2] is human breast MDA-MB-361 tumor cell line. Description: In vitro cell culture growth assay (MTS), MDA-MB-361. The format is cell-based. The following applies: 72 h, human breast MDA-MB-361 cells, three days after drug treatment.
The test system of assay [3] is human prostate PC3-mm2 tumor cell line. Description: In vitro cell culture growth assay (MTS), PC3-mm2. The format is cell-based. Conditions: PC3MM2, 72 h, human prostate PC3-mm2 cells, three days after drug treatment.

As a reminder, the IC50 is the concentration at which inhibition is half-maximal. On to `CNC(=O)Nc1ccc(-c2nc(-c3ccc(NC(=O)Nc4cccc(C(N)=O)c4)cc3)nc(N3CCOCC3)n2)cc1` [Example 466, 3-({[4-(4-{4-[(methylcarbamoyl)amino]phenyl}-6-morpholin-4-yl-1,3,5-triazin-2-yl)phenyl]carbamoyl}amino)benzamide], for which, in assay [1], the IC50 was 420 nM.
For the compound `CN(C)CCNC(=O)c1ccc(NC(=O)Nc2ccc(-c3nc(N4CCCCC4)nc(N4CCOCC4)n3)cc2)cc1` [Example 601, N-[2-(dimethylamino)ethyl]-4-({[4-(4-morpholin-4-yl-6-piperidin-1-yl-1,3,5-triazin-2-yl)phenyl]carbamoyl}amino)benzamide], the figures for the IC50 in assay [2] and in assay [3] were 22 nM and 155 nM, respectively.
